Experimental data taken from patent US20220218878A1, “CONTROLLED HEAT DELIVERY COMPOSITIONS” (BAMBU VAULT LLC, priority 2019, published 2022).

Columns and labels:
[1] = Surfactant effect on tetrakis aminium dye retention and particle size during emulsification; assay type: physicochemical; settings: emulsion and evaporation process; emulsifier as labelled
Description: The preparation of the aqueous phase: under the stirring with an IKA Ultra-Turrax® T 25 homogenizer at 8000 RPM, 1.2 g of sodium dodecyl sulfate (SDS) was added into 190 g of 4.9% aqueous polyvinyl alcohol (PVA) solution placed in a round bottom flask. An aqueous solution of SDS containing 4.9% PVA was formed after the dissolution of SDS (the aqueous phase).
The preparation of the organic phase: to 88 g of dichloromethane was added 8.0 g of DSM NeoCryl® B-805 polymer (MMA/BMA copolymer), 1.82 g of Epolight™ 1117 dye, and 0.65 g of Cyanox® 1790 in 88 g to allow the formation of a clear solution of B805 polymer and dyes (the polymer: dye weight ratio=4.4:1).
The organic phase (polymer and dyes dissolved in dichloromethane) was injected directly into the aqueous phase (PVA solution with SDS surfactant) at the tip of the Turrax's roto-stator (i.e. directly into the flow being sheared by the roto-stator). The shear mixing at 8000 RPM was continued for 30 minutes. The resulting mixture was decanted into an open-mouth container and stirred magnetically for 16 hours. A solid suspension of particles containing IR dye was obtained. […]
Particle Size and Distribution for the particle heaters The particle size and size distribution of the NIR dye/MMA/BMA copolymer particles were measured by a Horiba LA-950 Particle Size Analyzer in distilled water with pH 7.4 (FIG. 3). […]

[2] = Screening of acrylic polymer carriers and additives for particle performance; assay type: physicochemical; settings: additive within the particles
From the text: Various commercially available acrylic polymers were screened for preferred particle performance characteristic such as particle size distribution, IR dye stability and encapsulation efficiency.
The loading of dyes within the particles is as high as possible without degrading the cohesion of the polymer. The additives that stabilize the dye within the particles have been studied.

Row | Epolight™ 1117 retention in the particles [1] | impact on dye stability [2] | Structure (SMILES)
1 | 50% | – | CCCCCCCCCCCCCOC(=O)CC(C(=O)OCCCCCCCCCCCCC)S(=O)(=O)O.[Na] (stereo not drawn) [Aerosol® TR-70, sodium bis(tridecyl) sulfosuccinate]
2 | 85-90% | – | CCCCCCCCCCCCOS(=O)(=O)[O-].[Na+] [Sodium dodecyl sulfate, sodium dodecyl sulfate]
3 | – | positive impact on dye stability | Cc1cc(C(C)(C)C)c(O)c(C)c1Cn1c(=O)n(Cc2c(C)cc(C(C)(C)C)c(O)c2C)c(=O)n(Cc2c(C)cc(C(C)(C)C)c(O)c2C)c1=O [Cyanox® 1790, 1,3,5-tris(4-tert-butyl-3-hydroxy-2,6-dimethylbenzyl)-1,3,5-triazine-2,4,6-(1H,3H,5H)-trione]
